{"source": "patent US7964191B2", "about": "“Compositions and methods for the treatment of ophthalmic disease” (Allergan, Inc., priority 2006, dated 2011)", "test_system": "diabetic retinopathy", "assay": "Treatment of a patient with proliferative (left eye) and non-proliferative (right eye) diabetic retinopathy", "format": "in vivo, human", "details": "Example 10", "method": "A person complains of vision loss in the left eye. The patient reports an onset of Type II diabetes, and has been under treatment with metformin hydrochloride for 10 years.\nThe patient is given an intravitreal injection comprising 150 μl of a solution of hyaluronic acid in which biodegradable PLGA microspheres (mean particle diameter of about 40 μm; lactide to glycolide ratio 75:25) are suspended. See U.S. patent application Ser. No. 11/368,845, filed Mar. 6, 2006, incorporated by reference herein in its entirety. Approximate weight of microspheres per dose was 20 mg. In addition to the PLGA polymer, the microspheres comprise approximately 5% by weight of an SDF-1α derivative that comprises a disulfide-linked dimer comprising two identical peptides, with each peptide comprising amino acids 1-9 of SDF-1 (these positions correspond to amino acids 22-47 of SEQ ID NO: 4, 5, and 6) with glycine substituted for proline in each position 2 (corresponding to position 23 of SEQ ID NO: 4, 5, and 6).\nThe patient's visual acuity (and retinal condition under dilation) are monitored every two weeks for 8 weeks.\nThe patient of Example 9 is treated by subconjunctival injection in each eye (100 μl volume in hyaluronic acid solution) of a single fibrous monolithic PLGA intraocular implant (approximately 120 μg; diameter approximately 3 mm) comprising 50% by weight of a CXCR4-inhibitory compound: N-[(S)-1-(1-naphthyl)ethyl]-5-(2-methylbenzyl)amino-2-(S)-[4-[N-(imidazole-2-ylmethyl)aminomethyl]benzoyl]aminopentanoylamide (see Yamzaki et al., U.S. Publication No. 2004/0254221.\nAfter 8 weeks visual acuity is tested, and has improved by 2 lines in each eye.\nThe patient of Example 9 is administered an intravitreal injection in each eye comprising 150 μl of a solution of hyaluronic acid in which biodegradable PLGA microspheres (mean particle diameter of about 40 μm; lactide to glycolide ratio 75:25) are suspended. Approximate weight of microspheres per dose was 20 mg. […]"}
{"smiles": "Cc1ccccc1CNCCC[C@H](NC(=O)c1ccc(CNCc2ncc[nH]2)cc1)C(=O)N[C@@H](C)c1cccc2ccccc12", "note": "[N-[(S)-1-(1-naphthyl)ethyl]-5-(2-methylbenzyl)amino-2-(S)-[4-[N-(imidazole-2-ylmethyl)aminomethyl]benzoyl]aminopentanoylamide]", "values": [{"measurement": "fluorescein angiography: leakage of blood into the retina", "setting": "after 6 weeks", "result": "does not reveal any leakage of blood into the retina"}, {"measurement": "improvement in visual acuity, each eye", "setting": "after 8 weeks", "result": 2, "unit": "lines"}, {"measurement": "macular edema", "setting": "subconjunctival PLGA implant, 50% by weight compound, each eye, after 6 weeks", "result": "barely observable"}]}
